# Experimental data taken from patent US8486931B2, “Substituted oxindole compounds” (Abbott GmbH & Co. KG, priority 2007, dated 2013).
# Counter-ions that a name gives are not always drawn.
# Target: T1, human vasopressin V1b receptor (Homo sapiens, UniProt P47901)
# T1 construct: expressed in transfected cells; host or cells: CHO-K1 (cell line hV1b-3H2_CHO), membrane preparation
# T1 sequence (P47901 1-424): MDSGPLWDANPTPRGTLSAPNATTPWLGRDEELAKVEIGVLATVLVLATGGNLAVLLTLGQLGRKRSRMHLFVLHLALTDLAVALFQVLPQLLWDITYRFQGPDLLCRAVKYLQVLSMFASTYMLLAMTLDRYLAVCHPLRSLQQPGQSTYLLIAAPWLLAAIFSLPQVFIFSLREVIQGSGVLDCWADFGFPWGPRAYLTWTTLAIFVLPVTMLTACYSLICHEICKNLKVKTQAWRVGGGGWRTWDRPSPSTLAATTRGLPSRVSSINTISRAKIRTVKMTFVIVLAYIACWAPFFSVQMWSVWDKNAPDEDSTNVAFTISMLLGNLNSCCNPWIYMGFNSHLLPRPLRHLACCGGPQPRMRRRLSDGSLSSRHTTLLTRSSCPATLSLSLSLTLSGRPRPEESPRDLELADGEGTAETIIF
# Assay: Vasopressin V1b receptor binding assay
# Details: membranes from CHO-K1 cells with stably expressed human V1b receptors, 1.5 nM 3H-AVP displacement; with more than one stereogenic center: the diastereomer with stronger affinity
# Method in brief: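 Membranes bearing human V1b receptor incubated 60 min at room temperature in 50 mM Tris, 10 mM MgCl2, 0.1% BSA, pH 7.4, 2% DMSO, triplicate.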
row,Ki,Structure (SMILES)
1,< 10 nM,"CCOc1ccc(OC)cc1C1(N2CCN(c3ccnc(C4CC4)c3)CC2)C(=O)N(S(=O)(=O)c2cccc3cccnc23)c2ccc(C#N)cc21 (racemic) [Example 66, (±)-5-Cyano-3-[4-(2-cyclopropylpyridin-4-yl)piperazin-1-yl]-3-(2-ethoxy-5-methoxyphenyl)-1-(quinoline-8-sulfonyl)-2,3-dihydro-1H-indol-2-one]"
2,< 10 nM,"CCOc1ccc(OC)cc1C1(N2CCN(c3ccnc(C4CC4)c3)CC2)C(=O)N(S(=O)(=O)c2ccc(OC)c3cccnc23)c2ccc(C#N)cc21 (racemic) [Example 70, (±)-5-Cyano-3-[4-(2-cyclopropylpyridin-4-yl)piperazin-1-yl]-3-(2-ethoxy-5-methoxyphenyl)-1-(5-methoxyquinoline-8-sulfonyl)-2,3-dihydro-1H-indol-2-one]"
3,10 to 50 nM,"CCOc1ccc(OC)cc1C1(N2CCN(c3ccnc(CC)c3)CC2)C(=O)N(S(=O)(=O)c2ccc(OC)c3cccnc23)c2ccc(C#N)cc21 (racemic) [Example 72, (±)-5-Cyano-3-(2-ethoxy-5-methoxyphenyl)-3-[4-(2-ethylpyridin-4-yl)piperazin-1-yl]-1-(5-methoxyquinoline-8-sulfonyl)-2,3-dihydro-1H-indol-2-one]"
4,< 10 nM,"CCOc1ccc(OC)cc1C1(N2CCCN(c3ccnc(C)c3)CC2)C(=O)N(S(=O)(=O)c2ccc(OC)c3cccnc23)c2ccc(C#N)cc21 (racemic) [Example 73, (±)-5-Cyano-3-(2-ethoxy-5-methoxyphenyl)-1-(5-methoxyquinoline-8-sulfonyl)-3-[4-(2-methylpyridin-4-yl)-[1,4]diazepan-1-yl]-2,3-dihydro-1H-indol-2-one]"

# The remaining lines, values behind:
row,Structure (SMILES),Ki
1,"CCOc1ccc(OC)cc1C1(N2CC3CN(c4ccncc4)CC3C2)C(=O)N(S(=O)(=O)c2ccc(OC)cn2)c2ccc(C#N)cc21 (racemic) [Example 68, (±)-5-Cyano-3-(2-ethoxy-5-methoxyphenyl)-1-(5-methoxypyridine-2-sulfonyl)-3-(5-pyridin-4-ylhexahydropyrrolo[3,4-c]pyrrol-2-yl)-2,3-dihydro-1H-indol-2-one]",< 10 nM
2,"CCOc1ccc(OC)cc1C1(N2CCN(C3CCNCC3)CC2)C(=O)N(S(=O)(=O)c2ccc(OC)c3cccnc23)c2ccc(C#N)cc21 (racemic) [Example 69, (±)-5-Cyano-3-(2-ethoxy-5-methoxyphenyl)-1-(5-methoxyquinoline-8-sulfonyl)-3-(4-piperidin-4-ylpiperazin-1-yl)-2,3-dihydro-1H-indol-2-one hydrochloride]",10 to 50 nM
3,"CCOc1nc(Cl)ccc1C1(N2CCCN(c3ccncc3)CC2)C(=O)N(S(=O)(=O)c2ccc(OC)c3cccnc23)c2ccc(C#N)cc21 (racemic) [Example 71, (±)-5-Cyano-3-(6-chloro-2-ethoxypyridin-3-yl)-1-(5-methoxyquinoline-8-sulfonyl)-3-(4-pyridin-4-yl-[1,4]diazepan-1-yl)-2,3-dihydro-1H-indol-2-one]",10 to 50 nM
4,"CCOc1ccc(OC)cc1C1(N2CC3CN(c4ccncc4)CC3C2)C(=O)N(S(=O)(=O)c2ccc(OC)c3cccnc23)c2ccc(C#N)cc21 (racemic) [Example 74, (±)-5-Cyano-3-(2-ethoxy-5-methoxyphenyl)-1-(5-methoxyquinoline-8-sulfonyl)-3-(5-pyridin-4-ylhexahydropyrrolo[3,4-c]pyrrol-2-yl)-2,3-dihydro-1H-indol-2-one]",10 to 50 nM
5,"CCOc1ccccc1C1(N2CCCN(c3ccncc3)CC2)C(=O)N(S(=O)(=O)c2ccc(OC)cn2)c2ccc(C#N)cc21 (racemic) [Example 78, (±)-5-Cyano-3-(2-ethoxyphenyl)-1-(5-methoxypyridine-2-sulfonyl)-3-(4-pyridin-4-yl-[1,4]diazepan-1-yl)-2,3-dihydro-1H-indol-2-one]",10 to 50 nM
6,"CCOc1ccccc1C1(N2CCN(c3ccnc(C)c3)CC2)C(=O)N(S(=O)(=O)c2ccc(OC)cn2)c2ccc(C#N)cc21 (racemic) [Example 79, (±)-5-Cyano-3-(2-ethoxyphenyl)-1-(5-methoxypyridine-2-sulfonyl)-3-[4-(2-methyl-pyridin-4-yl)piperazin-1-yl]-2,3-dihydro-1H-indol-2-one]",< 10 nM
